Entries after “also recorded” stand apart in the source; their conditions may differ. Where two headings read alike, the source gives them in different places. Primed or numbered codes have the meaning given here. Ends that are not written are not given here. * marks the point of attachment. Myristoyl = CCCCCCCCCCCCCC(=O)*; PEG4′ = PEG4 linker; FAM = fluorescein
What was measured:
SIRT2 [1] = biological target: T1, SIRT2 (Homo sapiens, UniProt Q8IXJ6); conditions: read-out: IC50 for SIRT2 demyristoylase activity; cited from earlier work
T1 sequence (Q8IXJ6 34-356): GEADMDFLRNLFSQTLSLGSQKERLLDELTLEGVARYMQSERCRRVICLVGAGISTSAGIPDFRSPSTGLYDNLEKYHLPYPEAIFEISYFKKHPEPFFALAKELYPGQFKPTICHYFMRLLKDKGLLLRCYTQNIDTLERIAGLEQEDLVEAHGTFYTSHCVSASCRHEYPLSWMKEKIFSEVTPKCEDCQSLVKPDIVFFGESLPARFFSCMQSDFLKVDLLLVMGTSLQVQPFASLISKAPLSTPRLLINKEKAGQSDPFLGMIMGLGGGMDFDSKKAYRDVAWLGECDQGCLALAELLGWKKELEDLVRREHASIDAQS

SIRT2 [2] = biological target: T1, SIRT2; conditions: cited from earlier work
[3] = biological target: SIRT2—decanoyl peptide complex; design: method as in PMID 32941003; conditions: cited from earlier work
[4] = biological target: T2, human SIRT2 catalytic domain (6xHis-SUMO-SIRT2) (Homo sapiens, UniProt Q8IXJ6)
T2 sequence (Q8IXJ6 34-356): T1 sequence (Q8IXJ6 34-356)

[5] = tested on: acetylated alpha-tubulin in A549 cells; test: Immunofluorescence staining of acetylated alpha-tubulin in A549 cells; format: cell-based, human; conditions: 25 μM, 6 hours
Description: 100,000 A549 or A549 SIRT2-KO cells were seeded on a coverslip that was placed in the well of 6-well plate, and the cells were grown overnight in full DMEM. […] The cells were then washed three times with PBS, fixed with 4% paraformaldehyde for 10 min, then washed again three times with PBS. Cells were incubated with 0.2% Triton X-100 for 15 minutes on a shaker followed by three more PBS washes. The cells were then blocked with 2% BSA in PBS for 1 hour at room temperature. […] Slides were imaged using a Keyence BZ-X710 fluorescence microscope with the following filter settings: DAPI, excitation/emission was 300–400 nm/438-484 nm; Alexa Fluor 488, excitation/emission was 448 nm/500-550 nm. All images were obtained under identical conditions, and fluorescence intensities were quantified using Fiji/ImageJ without any manipulation to the images. The fluorescence intensity from at least six cells per coverslip were randomly selected and measured targeting the cytosol (for measuring acetylated alpha-tubulin levels via Alexa Fluor 488) or the nucleus (for measuring nuclear DNA staining via DAPI). Relative fluorescence intensity was calculated as the ratio of Alexa Fluor 488/DAPI intensities. […]

[6] = tested on: acetylated alpha-tubulin in A549 SIRT2-KO cells; test: Immunofluorescence staining of acetylated alpha-tubulin in A549 SIRT2-KO cells; format: cell-based, human; conditions: 25 μM, 6 hours
A549 cells = test: Cell viability MTT assay; format: cell-based, human; conditions: 72 hours treatment, concentrations shown in Fig 4F and 4G
Description: 5,000 A549 cells were seeded in a 96-well plate in full DMEM. The total volume in each well was 150 μl, and the DMSO concentration was 0.7%. After this treatment period, 10 μl of MTT reagent was added to each well, then the cells were cultured for 4 hour before adding 100 μl of crystal dissolving solution for another 16 hour incubation (Cayman Chemical, catalog #10009365). The absorbance in each well was measured at 570 nm and was used to determine the cell viability by comparing the absorbance of drug treated cells to control (DMSO treated) cells.

[7] = biological target: T2, human SIRT2 catalytic domain (6xHis-SUMO-SIRT2); test: biochemical
[8] = biological target: T2, human SIRT2 catalytic domain (6xHis-SUMO-SIRT2); test: SIRT2—myristoyl-peptide HTRF binding assay (displacement of FAM-myristoyl-H4K16 peptide); conditions: at the highest ligand concentrations
SIRT2 [9] = biological target: T1, SIRT2; test: 1-aminoanthracene binding competition assay, SIRT2 alone
Description: Competition assays where 1-aminoanthracene was displaced from SIRT2 by 2, 4, 5, and 6 were performed as previously reported where we described its displacement from SIRT2 by 3. The assays were also cuvette-based and performed at 23°C in PBS with 1 mM DTT, and the final DMSO concentration was 0.6%. Briefly, the fluorescence intensity of 100 nM 1-aminoanthracene was measured in the presence of 4 μM SIRT2 and increasing amounts of ligand using excitation/emission wavelengths of 390 nm/520 nm. As previously described, displacement of 1-aminoanthracene from SIRT2 by a competitor results in a reduction of its fluorescence.
(§1) We determined and report absolute IC50 values from the curves which reflect ligand concentrations that reduce the fluorescence by 50% compared to control (no ligand) samples.

SIRT2 [10] = biological target: T1, SIRT2; test: SIRT2 deacetylase activity assay (MALDI-MS, acetyl-H4K16 peptide); format: biochemical; conditions: for Deacetylase IC50: 4 μM acetyl-H4K16, 1 mM NAD+, 37°C, absolute IC50, "no effect" = 200 μM compound did not significantly affect SIRT2 activity
Description: (§2) The enzymatic activity of SIRT2 was measured using a MALDI-MS—based protocol reported previously. Reactions were performed at 37°C for 2.5 min in PBS containing 1 mM DTT and 1 mM of NAD^+. Acylated H4K16 peptides were used as the substrates at the following concentrations: acetyl-H4K16, 4 μM; decanoyl-H4K16, 0.2 μM; dodecanoyl-H4K16, 0.5 μM; myristoyl-H4K16, 0.5 μM. These concentrations correspond to the enzyme’s Km for each substrate under saturating NAD^+ conditions. The enzyme concentration in each reaction was chosen such that 20% or less of the substrate was processed by the enzyme when the reactions were quenched. In dose-response assays showing a reduction in SIRT2 activity by increasing amounts of ligand, the data was fit with standard sigmoidal dose-response curves as we previously described. We report absolute IC50 values from the curves which reflect ligand concentrations that reduce the activity of the enzyme by 50% compared to control (no ligand) samples. Assays measuring the effects of ligand on SIRT1 deacetylase and SIRT6 demyristoylase activities were performed similarly, as previously described.

SIRT2 [11] = biological target: T1, SIRT2; test: SIRT2 demyristoylase activity assay (MALDI-MS, myristoyl-H4K16 peptide); format: biochemical; conditions: for Demyristoylase IC50: 0.5 μM myristoyl-H4K16, 1 mM NAD+, 37°C, absolute IC50, "no effect" = 200 μM compound did not significantly affect SIRT2 activity
Description: as §2

SIRT2 [12] = biological target: T1, SIRT2; test: SIRT2 binding competition assay using Cy3-myristoyl-H4K16 peptide; conditions: concentrations as high as 100 μM
Description: Competition assays where Cy3-myristoyl-H4K16 peptide was displaced from SIRT2 by 1 were performed as previously described. Assays were performed in PBS with 1 mM DTT at 23°C in a quartz microcuvette (160 μl assay volume). Briefly, the fluorescence intensity of 50 nM Cy3-myristoyl-H4K16 peptide was measured in the presence of 2.5 μM SIRT2 and increasing amounts of 1 using excitation/emission wavelengths of 535 nm/560 nm. The final DMSO concentration in each measurement was 0.6%. As previously described, displacement of Cy3-myristoyl-H4K16 peptide from SIRT2 by a competitive ligand results in a reduction of its fluorescence.
as §1, with “The data from both competition assays show a reduction in probe fluorescence at increasing concentrations of competitor ligands. […] We” for “We”

[13] = biological target: T3, 6xHis-SUMO-SIRT2 (human SIRT2 catalytic domain, amino acids 34-356, with N-terminal 6xHis-SUMO tag) (human, UniProt Q8IXJ6 34-356); test: AlphaScreen or HTRF; direct binding; 6xHis-SUMO-SIRT2 and FAM-myristoyl-H4K16 peptide 0-10 nM each, 0.2 nM anti-6xHis terbium cryptate-labeled antibody as FRET donor; 384-well plates, room temperature, 10 mM Hepes-NaOH pH 7.4, 150 mM NaCl, 5 mM DTT, 0.005% Tween-20; apparent Kd; conditions: both partners purified
T3 construct: human SIRT2 catalytic domain, amino acids 34-356; Used in the HTRF assays; held near the FRET donor by a terbium cryptate-labeled anti-6xHis antibody (a tool); also called His tagged-SIRT2; sirtuin-2; not shown: His6, N-terminal, kept; SUMO, N-terminal, kept
T3 sequence (looked up): T1 sequence (Q8IXJ6 34-356)

[14] = biological target: T4, SIRT2 catalytic domain (human, amino acids 34-356), 6xHis-SUMO tag removed (human, UniProt Q8IXJ6 34-356); test: ITC; PBS, 25°C; 20 uM SIRT2 in the cell, 200 uM peptide in the syringe; one site binding model; conditions: both partners purified
T4 construct: human SIRT2 catalytic domain, amino acids 34-356; also called sirtuin-2; source: tag removed, chromatographically purified; not shown: His6, N-terminal, cleaved; SUMO, N-terminal, cleaved
T4 sequence (looked up): T1 sequence (Q8IXJ6 34-356)

[15] = biological target: T3, 6xHis-SUMO-SIRT2 (human SIRT2 catalytic …); test: AlphaScreen or HTRF; competition; 3 nM SIRT2, 0.2 nM terbium cryptate-labeled antibody, 3 nM FAM-myristoyl-H4K16 peptide, 10 ul/well; unlabeled myristoyl-H4K16 peptide as competitor; conditions: both partners purified

## Nc1cccc2cc3ccccc3cc12 [1-aminoanthracene]
SIRT2 [1]
  IC50: 21 µM
SIRT2 [2]; read-out: Kd for SIRT2 alone
  Kd: 37 µM
[3]
  Kd: 4 µM

## COc1ccc(NC(=O)c2ccc3c(SCC(=O)O)c4c(nc3c2)CCCC4)c(OC)c1 [C598-0017]
[4]
  IC50: 6.34 µM

## Cc1cc(C)nc(SCC(=O)Nc2ncc(Cc3cccc4ccccc34)s2)n1 [SirReal2, reference compound]
[5]
  level of acetylated alpha-tubulin (immunofluorescence): increased acetylated alpha-tubulin to similar levels as 1; also recorded: enhanced fluorescence
[6]
  level of acetylated alpha-tubulin (immunofluorescence): no effect
A549 cells
  viability / toxicity in A549 cells (MTT): did not cause toxicity; also recorded: no effect

## CCCCCCCCCCCCCCCC(=O)OC[C@H](O)[C@H]1OC(=O)C(O)=C1O [ascorbyl palmitate]
SIRT2 [1]
  IC50: 8 to 23 µM
SIRT2 [2]; read-out: published Kd for SIRT2
  Kd: 3 to 5 µM
[7]
  IC50: 2 µM
[8]
  maximum reduction of HTRF FRET signal (displacement of FAM-myristoyl-H4K16 peptide): ~ 40%

## Cc1ccc(C(C)C)c(O)c1 [compound 4, 2-isopropyl-5-methylphenol]
SIRT2 [9]
  IC50: 128 µM
  Kd: 116 µM

## CCCCCc1ccc(C)cc1O [compound 6, 5-methyl-2-pentylphenol]
SIRT2 [9]; SIRT2 only, 100 nM 1-aminoanthracene, 4 μM SIRT2
  IC50: 81 µM
SIRT2 [9]; read-out: SIRT2 Kd
  Kd: 73 µM

## FC(F)(F)C1(c2ccccc2)N=N1 [compound 8, 3-phenyl-3-(trifluoromethyl)-3H-diazirine]
SIRT2 [10]
  IC50: 114 µM
SIRT2 [11]
  Demyristoylase IC50: no effect

## Oc1c(F)cc(Br)cc1I [compound 9, 4-bromo-2-fluoro-6-iodophenol]
SIRT2 [10]
  Deacetylase IC50: no effect
SIRT2 [11]
  Demyristoylase IC50: no effect

## Oc1c(I)cc(Br)cc1I [compound 10, 4-bromo-2,6-diiodophenol]
SIRT2 [10]
  Deacetylase IC50: no effect
SIRT2 [11]
  Demyristoylase IC50: no effect

## Oc1ccc(Br)cc1C(F)(F)F [compound 11, 4-bromo-2-(trifluoromethyl)phenol]
SIRT2 [10]
  Deacetylase IC50: no effect
SIRT2 [11]
  Demyristoylase IC50: no effect

## Oc1c(F)cc(Br)cc1F [compound 12, 4-bromo-2,6-difluorophenol]
SIRT2 [10]
  Deacetylase IC50: no effect
SIRT2 [11]
  Demyristoylase IC50: no effect

## CCCCOc1cc(F)c(O)c(F)c1 [compound 13, 4-butoxy-2,6-difluorophenol]
SIRT2 [10]
  Deacetylase IC50: no effect
SIRT2 [11]
  Demyristoylase IC50: no effect

## Oc1cc(C(F)(F)F)ccc1F [compound 14, 2-fluoro-5-(trifluoromethyl)phenol]
SIRT2 [10]
  Deacetylase IC50: no effect
SIRT2 [11]
  Demyristoylase IC50: no effect

## O=C1CSc2nc3ccccc3n21 [compound 15, [1, 3]thiazolo[3,2-a]benzimidazole-3(2H)-one]
SIRT2 [12]
  displacement of Cy3-myristoyl-H4K16 peptide from SIRT2 / interaction with SIRT2: too weak to measure a Kd; also recorded: did not efficiently displace
SIRT2 [9]; concentrations as high as 100 μM
  displacement of 1-aminoanthracene from SIRT2: did not efficiently displace
SIRT2 [10]
  Deacetylase IC50: not effective; also recorded: no effect
SIRT2 [11]
  IC50: 117 µM

## Cc1ccc(C(=O)Nc2ccc(S(=O)(=O)O)c3cc(S(=O)(=O)O)cc(S(=O)(=O)O)c23)cc1NC(=O)c1cccc(NC(=O)Nc2cccc(C(=O)Nc3cc(C(=O)Nc4ccc(S(=O)(=O)O)c5cc(S(=O)(=O)O)cc(S(=O)(=O)O)c45)ccc3C)c2)c1 [suramin]
SIRT2 [1]
  IC50: 95 µM

## {FAM-PEG4′}-KGLGKGGAK(Myristoyl)RHRK
[13]
  Kd: ~0.001 µM

## KGLGKGGAK(Myristoyl)RHRK
[14]
  Kd: 0.013 µM
[15]
  IC50: 0.002 µM

Reference: paper PMC11195995, “A homogeneous time-resolved fluorescence screen to identify SIRT2 deacetylase and defatty-acylase inhibitors” (PLOS ONE, 2024)
